Results on nine molecules are retold here after patent publication US20250042929A1, “NEW CRYSTAL FORM OF TRISACCHARIDE” (SHANDONG HENGLU BIOTECH. CO., LTD., priority 2022, published 2025).

Structures are written as SMILES.

Format in all cases: physicochemical
A short description of data set [1]: Hygroscopicity study in constant temperature and humidity chamber. The conditions noted are these: for Moisture rate: Example 9, after 5 days; for Added weight: about 1 g sample; for Before the experiment, appearance: before placing in chamber. Here is the method: • Step 1: Preparation of glass petri dishes
One day before the experiment, place glass petri dishes (without lids) in a constant temperature and humidity chamber set at 25±1° C. and 75±2% relative humidity for 4 hours. Take out the dishes, accurately weigh, and repeat until consistent weight readings are obtained. Record the data in Table 3. • Step 2: Weigh the amorphous LNTII powder and LNTII crystalline form A from Example 1 separately, place them in the pre-weighed petri dishes from Step 1 in a constant temperature and humidity chamber set at 25° C. and 75% relative humidity. After 5 days, examine any physical changes, reweigh the samples, and calculate their hygroscopicity. Record the results in Tables 2 and 3. A comparison of the physical appearances before and after moisture exposure are depicted in FIG. 5 and FIG. 6.
Replicating the procedure outlined in Example 8, evaluate the LNTII crystalline form A samples obtained from Examples 1-7. Place the samples in pre-weighed petri dishes within a constant temperature and humidity chamber at 25° C. and 75% relative humidity. After 5 days, inspect for any changes in appearance, weigh the samples, and calculate their hygroscopicity. Document the findings in Table 4.

The nature of data set [2]: Stability study, sealed in aluminum-plastic composite film, 40° C. and 75% relative humidity. Here is the method: In this invention, the quantification of LNTII is performed using high-performance liquid chromatography (HPLC) under the conditions listed below:
Chromatographic column: Asahipak NH2P-504E, 4.6 mm×250 mm, 5 μm particle size; mobile phase composition: acetonitrile to water in a ratio of 65:35; flow rate: 1 mL/min; detection method: UV-VIS detector; wavelength: 210 nm; column temperature: 30° C.; injection volume: 10 μL; total run time: 30 minutes.
Separately weigh 10 g of amorphous LNTII powder produced in Examples 1-7. Seal each sample with aluminum-plastic composite film. Store all samples in a constant temperature and humidity chamber at 40° C. and 75% relative humidity. Retrieve samples at the end of January, February, and March to assess the LNTII content and observe any changes in appearance. Record the outcomes in Table 5.

Test in data set [3]: as above
The following applies: 3 months.

Where [4] appears, read: End of 1 month, 40° C., 75% relative humidity, HPLC.
[5] abbreviates: End of 2 months, 40° C., 75% relative humidity, HPLC.
Where [6] appears, read: End of 3 months, 40° C., 75% relative humidity, HPLC.
[7] abbreviates: Example 8, 25° C., 75% relative humidity, 5 days.

In data set [1] (25° C., 75% relative humidity), `CC(=O)NC1C(O)[C@H](O)C(CO)O[C@H]1OC1C(O)[C@H](O[C@H]2C(CO)OC(O)C(O)C2O)OC(CO)[C@@H]1O` (stereo partly shown) [Example 1 Crystalline form A, Lacto-N-triose II] had a Moisture rate of 12.87%. In addition, the Content in data set [2] (Day 0, LNTII content by HPLC) was 97.98%; in data set [2] (setting [4]), 98.02%; in data set [2] (setting [5]) it was 97.97%; in data set [2] (setting [6]), 97.96%.

Take `CC(=O)NC1C(O)[C@H](O)C(CO)O[C@H]1OC1C(O)[C@H](O[C@H]2C(CO)OC(O)C(O)C2O)OC(CO)[C@@H]1O` (stereo partly shown) [Example 2 Crystalline form A, Lacto-N-triose II]: the Moisture rate in data set [1] (25° C., 75% relative humidity) came to 13.26%. Besides, the Content came out at 98.18% in data set [2] (Day 0, LNTII content by HPLC); 98.15% in data set [2] (setting [4]); 98.22% in data set [2] (setting [5]); 98.23% in data set [2] (setting [6]).

As to `CC(=O)NC1C(O)[C@H](O)C(CO)O[C@H]1OC1C(O)[C@H](O[C@H]2C(CO)OC(O)C(O)C2O)OC(CO)[C@@H]1O` (stereo partly shown) [Example 3 Crystalline form A, Lacto-N-triose II], the Moisture rate in data set [1] (25° C., 75% relative humidity) amounted to 14.09%. Besides, the Content in data set [2] (Day 0, LNTII content by HPLC) is listed as 97.87%; in data set [2] (setting [4]) it was 97.90%; in data set [2] (setting [5]), 97.93%; in data set [2] (setting [6]), 97.88%.

With `CC(=O)NC1C(O)[C@H](O)C(CO)O[C@H]1OC1C(O)[C@H](O[C@H]2C(CO)OC(O)C(O)C2O)OC(CO)[C@@H]1O` (stereo partly shown) [Example 4 Crystalline form A, Lacto-N-triose II], the Moisture rate in data set [1] (25° C., 75% relative humidity) was 13.61%. Further, the Content in data set [2] (Day 0, LNTII content by HPLC) came out at 92.30%; in data set [2] (setting [4]) it was 92.32%; in data set [2] (setting [5]), 92.33%; in data set [2] (setting [6]) it was 92.27%.

On to `CC(=O)NC1C(O)[C@H](O)C(CO)O[C@H]1OC1C(O)[C@H](O[C@H]2C(CO)OC(O)C(O)C2O)OC(CO)[C@@H]1O` (stereo partly shown) [Example 5 Crystalline form A, Lacto-N-triose II], for which the Moisture rate in data set [1] (25° C., 75% relative humidity) was found to be 13.79%. In addition, the Content in data set [2] (Day 0, LNTII content by HPLC) came out at 92.57%; in data set [2] (setting [4]), 92.61%; in data set [2] (setting [5]), 92.51%; in data set [2] (setting [6]) it was 92.64%.

In data set [1] (25° C., 75% relative humidity), `CC(=O)NC1C(O)[C@H](O)C(CO)O[C@H]1OC1C(O)[C@H](O[C@H]2C(CO)OC(O)C(O)C2O)OC(CO)[C@@H]1O` (stereo partly shown) [Example 6 Crystalline form A, Lacto-N-triose II] gave a Moisture rate of 13.32%. In addition, the Content in data set [2] (Day 0, LNTII content by HPLC) came to 91.98%; in data set [2] (setting [4]) it was 91.94%; in data set [2] (setting [5]), 91.84%; in data set [2] (setting [6]), 91.93%.

In data set [1] (25° C., 75% relative humidity), `CC(=O)NC1C(O)[C@H](O)C(CO)O[C@H]1OC1C(O)[C@H](O[C@H]2C(CO)OC(O)C(O)C2O)OC(CO)[C@@H]1O` (stereo partly shown) [Example 7 Crystalline form A, Lacto-N-triose II] returned a Moisture rate of 12.74%. Further, the Content in data set [2] (Day 0, LNTII content by HPLC) worked out at 98.58%; in data set [2] (setting [4]) it was 98.56%; in data set [2] (setting [5]), 98.48%; in data set [2] (setting [6]), 98.56%.

Take `CC(=O)NC1C(O)[C@H](O)C(CO)O[C@H]1OC1C(O)[C@H](O[C@H]2C(CO)OC(O)C(O)C2O)OC(CO)[C@@H]1O` (stereo partly shown) [LNTII amorphous powder, Lacto-N-triose II, reference compound]: the “Moisture rate (moisture absorption rate = added weight/sample weight × 100%)” value in data set [1] (setting [7]) is listed as 29.47%. Also, the “Day 5, appearance” value in data set [1] (Example 8, 25° C., 75% relative humidity, 5 days, open petri dish) is listed as “Light yellow, paste”. In data set [1] (setting [7]), this molecule showed an Added weight of 0.2951 g. Besides, in data set [1] (Example 8), the “Before the experiment, appearance” value is listed as “Off-white powder”. The Content in data set [2] (Day 0, LNTII content by HPLC, listed as Amorphous LNTII powder) is given as 91.24%; in data set [2] (End of 1 month, 40° C., 75% relative humidity, HPLC, listed as Amorphous LNTII powder), 91.01%; in data set [2] (End of 2 months, 40° C., 75% relative humidity, HPLC, listed as Amorphous LNTII powder), 90.86%; in data set [2] (End of 3 months, 40° C., 75% relative humidity, HPLC, listed as Amorphous LNTII powder), 90.01%. For the same molecule, in data set [3] (listed as amorphous LNTII powder), the “Content and appearance throughout the stability study, in words” value was “decreases the content and the color gradually fades to pale yellow”.

Consider `CC(=O)NC1C(O)[C@H](O)C(CO)O[C@H]1OC1C(O)[C@H](O[C@H]2C(CO)OC(O)C(O)C2O)OC(CO)[C@@H]1O` (stereo partly shown) [LNTII form A, Lacto-N-triose II], for which the “Stability (from appearance changes and hygroscopicity results), in words” value in data set [1] (25° C., 75% relative humidity, 5 days, crystalline form A compared with amorphous powder) is on record as “superior to the amorphous powder”. For the same molecule, in data set [1] (setting [7]), the “Moisture rate (moisture absorption rate = added weight/sample weight × 100%)” value is 14.17% and the Added weight was found to be 0.1418 g. Moreover, in data set [1] (Example 8), the “Before the experiment, appearance” value is on record as “Off-white”. The “Content and appearance throughout the stability study, in words” value in data set [3] (listed as LNTII crystalline form A) was “maintains its content and appearance throughout the stability study”.
